{"source": "patent US20100016338A1", "about": "“5-[(3,3,3-Trifluoro-2-hydroxy-1-arylpropyl)amino]-1-arylquinolin-2-ones, a Process for their Production and their Use as Anti-inflammatory Agents” (BAYER SCHERING PHARMA AKTIENGESELLSCHAFT, priority 2008, published 2010)", "key": {"[1]": {"biological_target": "T1, glucocorticoid receptor (GR) (Homo sapiens, UniProt P04150)", "T1 construct": "made in house; host or cells: Sf9 insect cells infected with recombinant baculovirus; cytosol preparation", "T1 sequence (P04150 1-777)": "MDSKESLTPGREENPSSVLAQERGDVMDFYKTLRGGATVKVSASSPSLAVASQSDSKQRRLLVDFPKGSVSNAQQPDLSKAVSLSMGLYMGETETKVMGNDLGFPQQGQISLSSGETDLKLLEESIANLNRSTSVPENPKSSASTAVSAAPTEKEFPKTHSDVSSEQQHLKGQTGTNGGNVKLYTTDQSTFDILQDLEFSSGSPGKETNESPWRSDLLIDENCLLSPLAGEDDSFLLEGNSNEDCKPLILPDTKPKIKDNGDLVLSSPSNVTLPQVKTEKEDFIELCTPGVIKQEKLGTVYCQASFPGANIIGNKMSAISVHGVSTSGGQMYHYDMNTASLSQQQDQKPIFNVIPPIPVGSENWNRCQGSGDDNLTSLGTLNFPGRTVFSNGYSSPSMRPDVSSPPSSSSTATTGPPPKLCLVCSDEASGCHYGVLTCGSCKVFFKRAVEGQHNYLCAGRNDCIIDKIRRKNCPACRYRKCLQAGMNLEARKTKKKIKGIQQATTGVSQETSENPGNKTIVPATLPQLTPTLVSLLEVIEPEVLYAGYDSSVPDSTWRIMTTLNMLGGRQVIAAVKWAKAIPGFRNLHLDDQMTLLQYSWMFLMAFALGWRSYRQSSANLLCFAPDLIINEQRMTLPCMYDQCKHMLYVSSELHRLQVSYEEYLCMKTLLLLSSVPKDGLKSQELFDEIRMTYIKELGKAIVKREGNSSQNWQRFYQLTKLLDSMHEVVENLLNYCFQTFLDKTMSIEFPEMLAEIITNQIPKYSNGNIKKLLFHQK", "assay": "binding to the glucocorticoid receptor (recombinant receptor, cytosol of baculovirus-infected Sf9 cells)", "description": "The binding of the substances to the glucocorticoid receptor (GR) and other steroid hormone receptors (mineral corticoid receptor (MR), progesterone receptor (PR) and androgen receptor (AR)) is examined with the aid of recombinantly produced receptors. Cytosol preparations of Sf9 cells, which had been infected with recombinant baculoviruses, which code for the GR, are used for the binding studies."}, "[2]": {"test_system": "cytokine IL-8 secretion, human monocyte cell line THP-1", "assay": "inhibition of LPS-triggered IL-8 secretion in THP-1 cells (ELISA)", "format": "cell-based", "conditions": "in comparison with dexamethasone as reference", "method": "The concentration of the cytokines was determined in the supernatant by means of commercially available ELISA kits."}}, "data": [{"molecule": "COCC(O)(C(Nc1cc(F)cc2c1ccc(=O)n2-c1ccc(F)nc1)c1ccc(OC)c(F)c1Cl)C(F)(F)F", "note": "(centres unmarked) [Example 2, 5-{[1-(2-Chloro-3-fluoro-4-methoxyphenyl)-3,3,3-trifluoro-2-hydroxy-2-(methoxymethyl)propyl]amino}-7-fluoro-1-(6-fluoropyridin-3-yl)-1H quinolin-2-one]", "values": [{"measurement": "IC50", "setting": "[1]", "value": 6.3, "unit": "nM"}, {"measurement": "efficacy of IL-8 inhibition", "setting": "[2]", "value": 107, "unit": "%"}]}]}
